Values joined by “and” are separate entries in the source; they are usually repeats but may differ in a detail not shown here. Equal entries are not always repeated.
Key:
[1] = system: KPMM2 cells
Protocol: The effects of anti-human IL-6 receptor antibody on sensitivity of KPMM2 cells to chemotherapeutic agents used for treatment of myeloma such as adriamycin (ADR, manufactured by Kyowa Hakko), vincristine (VCR, manufactured by Sigma Chemical Co.), and melphalan (L-PAM, manufactured by Sigma Chemical Co.) were evaluated.
KPMM2 is a multiple myeloma cell line derived from the ascites of a human patient with myeloma (see Japanese Unexamined Patent Publication (Kokai) No. 7-236475). […] The growth activity of the cell was evaluated by incorporation of ^3H-labeled thymidine (manufactured by Amersham) into the cell.
The KPMM2 cells that had been maintained were washed thoroughly with a fresh medium (RPMI1640 medium supplemented with 20% FBS), and then were adjusted to 4×10^5/ml, which was dispensed in 50 μl aliquots in a 96-well flat-bottomed microtiter plate (manufactured by Falcon). Furthermore, a medium containing a recombinant human IL-6 (Asagoe, Y. et al., Bio/Technology (1988) 6, 806-809), anti-human IL-6 receptor antibody hPM-1 (see the above reference example 1 or International Patent Application WO 92-15759), and the above chemotherapeutic agents or a fresh medium as control were added to make 200 μl in each well.
The plate was incubated at 37° C. for 4 days under the humidified condition in the presence of 5% CO2. At four hours before the end of incubation, 10 μl of ^3H-labeled thymidine solution (100 μCi/ml) was added to each well, and then incubated for more 4 hours. At the end of incubation, the cells were collected onto the glass filter (manufactured by Printed Filtermat A, WALLAC) using a harvester (Micro 96 Harvester, manufactured by SKATRON Instruments). The radioactivity incorporated into the cells was measured by a microbeta (1450 MicroBeta, manufactured by WALLAC).
The activity of growth inhibition on KPMM2 was expressed using the effect by a chemotherapeutic agent alone as the control. Using the incorporation of ^3H-labeled thymidine into the cell for each experimental group in which a each concentration of a chemotherapeutic agent was added as 100, the amount of ^3H-labeled thymidine incorporated into the cell in an experimental group in which anti-human IL-6 receptor antibody was simultaneously added was compared as an index.

[2] = system: KPMM2 cells; experiment: Human myeloma cell-implanted SCID mouse system, dose dependency of antibody (Example 3): survival, serum M protein; assay type: in vivo; details: for Life-elongation ratio (%): vs drug non-administration group; for Survival period: mean±standard error
Protocol: For evaluation of antitumor effects, a xenograft model animal that was produced by implanting KPMM2 cells via the tail vein was used as in Working example 2. Thus, single-cell suspensions which were prepared by passing through a mesh KPMM2 cells that were minced after having been maintained in vivo were implanted at 0.2 ml per mouse via the tail vein (6×10^6 cells per mouse). The day when the cells were implanted was set at day 0.
They were given to mice at 0.1 ml per 10 g body weight of mouse via the tail vein on day 14 to create the 50, 10, 2, and 0.4 mg/kg administration groups.
Melphalan (L-PAM, manufactured by Sigma Chemical Co.) was used as a suspension of 0.1 mg/ml in 0.2% CMC solution in water. This was given orally at 0.1 ml per 10 g body weight of mouse (1 mg/kg weight) for 5 consecutive days starting on day 7.
The experiment was carried out on the following 10 groups: (A) the melphalan and the antibody non-administration group; (B) the melphalan single-drug administration group; (C) the each dose of antibody single-drug administration group , 4 groups (50, 10, 2, 0.4 mg/kg weight); and, (D) the melphalan and the each dose of antibody combined administration group, 4 groups (50, 10, 2, 0.4 mg/kg weight). The non-administration group included 12 mice per group, the melphalan administration group 6 mice per group, whereas each of the other groups included 7 mice. Furthermore, mice of the same lineage and purchased on the same day were raised without implanting a tumor, and the animals were used as negative control for M protein detection. The amount of M protein was calculated as described in Example 2.
Indices of the drug efficacy included the survival period, and the amount of M proteins on day 30, day 35, and day 42. For analysis of the survival period, a generalized Wilcoxon's test (SPSS for Windows ver. 6, SPSS inc.) was used. A significance level of 5% or lower was considered to be significant. For analysis of the amount of M protein in the serum, the ANOVA (Analysis of variance, SPSS for windows ver. 6, SPSS inc.) was first conducted. After confirming significance, Bonferroni method (SPSS for windows ver. 6, SPSS inc.) was used, and a significance level of 5% or lower was considered to be significant.

Row | Compound | growth index (3H-thymidine incorporation, chemotherapeutic agent alone = 100) [1] | life elongation effect (survival period) ([2]; antibody single-drug administration, 50, 10, 2, 0.4 mg/kg) | amount of M protein in the serum on day 30 ([2]; antibody single-drug administration, 50, 10, 2, 0.4 mg/kg on day 14 (FIG. 11)) | Life-elongation ratio (%) ([2]; hPM-1 0.4 mg/kg on day 14, CMC control) | Survival period ([2]; hPM-1 0.4 mg/kg via the tail vein on day 14, CMC control) | Life-elongation ratio (%) ([2]; hPM-1 2 mg/kg on day 14, CMC control) | Survival period ([2]; hPM-1 2 mg/kg via the tail vein on day 14, CMC control) | Life-elongation ratio (%) ([2]; hPM-1 10 mg/kg on day 14, CMC control) | Survival period ([2]; hPM-1 10 mg/kg via the tail vein on day 14, CMC control) | Life-elongation ratio (%) ([2]; hPM-1 50 mg/kg on day 14, CMC control) | Survival period ([2]; hPM-1 50 mg/kg via the tail vein on day 14, CMC control) | relationship of growth index with the concentration of chemotherapeutic agent ([1]; fixed concentration of anti-human IL-6 receptor antibody, 0.1 or 1 ng/ml IL-6 (FIG. 1 to 6)) | Life-elongation ratio (%) ([2]; melphalan 1 mg/kg orally 5 days from day 7, no antibody) | Survival period ([2]; melphalan 1 mg/kg orally, 5 consecutive days from day 7, no antibody) | Life-elongation ratio (%), value in parentheses ([2]; melphalan 1 mg/kg, no antibody, melphalan single-drug administration group as control) [%] | life elongation effect (survival period) ([2]; melphalan alone, 1 mg/kg) | amount of M protein in the serum on day 30 ([2]; melphalan single-drug administration, 1 mg/kg (FIG. 11))
1 | hPM-1: reshaped human PM-1 antibody: CDRs of mouse anti-IL-6 receptor antibody PM-1 grafted to human antibody, produced in CHO cells | 33.9 and 28.4 | none of the doses in the antibody single-drug administration group gave a significant life elongation effect | none of the doses significantly inhibited the amount of M protein | 98 | 40.3 ± 1.2 | 101 | 41.4 ± 1.3 | 99 | 40.4 ± 1.7 | 101 | 41.6 ± 1.0 | – | – | – | – | – | –
2 | NC(Cc1ccc(N(CCCl)CCCl)cc1)C(=O)O (centres unmarked) [melphalan] | – | – | – | – | – | – | – | – | – | – | – | decreased with the increase in melphalan concentration | 142 | 58.2 ± 1.8 | 100 | significant life elongation effect | significantly inhibited

Source: patent publication US7566453B2, “Methods for treating melanomas” (Chugai Seiyaku Kabushiki Kaisha, priority 1998, dated 2009)
